Laboratory results taken from patent publication US20110039783A1, “PEPTIDE HAVING HYPOTENSIVE ACTIVITY” (DAIICHI SANKYO COMPANY LIMITED, priority 2007, published 2011).
Entries after “also recorded” stand apart in the source; their conditions may differ. Where no end group is shown, it is not given here.

Columns and labels:
[1] = tested on: blood pressure of anesthetized Sprague-Dawley IGS male rats; test: Hypotensive activity in anesthetized rats, invasive blood pressure measurement after intravenous administration; type: in vivo, rat; conditions: for Hypotensive activity (dose/rat) 10 nmol / Hypotensive activity (dose/rat) 30 nmol / Hypotensive activity (dose/rat) 100 nmol: intravenous; for Hypotensive activity (dose/rat) 10 nmol: 10 nmol/rat; for Hypotensive activity (dose/rat) 30 nmol: 30 nmol/rat; for Hypotensive activity (dose/rat) 100 nmol: 100 nmol/rat
Procedure: 50 mg/kg pentobarbital sodium was intraperitoneally administered to 8- to 10-week-old Sprague-Dawley IGS male rats (Charles River Laboratories Japan, Inc.) for anesthesia. Thereafter, a tracheal cannula (PE 250), a femoral vein cannula (PE50), and a femoral artery cannula (PESO) were inserted into each rat. The femoral artery cannula was connected with a pressure transducer (PE23XL; manufactured by Nihon Kohden Corporation), and an apparatus formed by incorporating a blood pressure measurement unit (AP-641G; manufactured by Nihon Kohden Corporation) and an instantaneous heart rate measurement unit (AT-601G; manufactured by Nihon Kohden Corporation) into a multi-purpose preamplifier (RP-6004; manufactured by Nihon Kohden Corporation) was used to record the blood pressure and heart rate of each rat. The blood pressure was calibrated using a mercury manometer included in a stand-type electromanometer (MP-25S; manufactured by Nihon Kohden Corporation). The recording paper was adjusted, such that 10 mm or 20 mm on the recording paper corresponded to 100 mmHg.
Each peptide was dissolved in a concentration of 1 mM or 10 mM in a 0.1% acetic acid solution to prepare a peptide solution. Thereafter, depending on dose, it was diluted with a normal saline containing 0.1% bovine serum albumin (Fr.V). In the case of the dose of 10 nmol/rat, a 1 mM peptide solution was 10 times diluted, and 100 μl of the diluted solution was administered. In the case of the dose of 30 nmol/rat, a 1 mM peptide solution was 10 times diluted, and 300 μL, of the diluted solution was administered. In the case of the dose of 100 nmol/rat, a 10 mM peptide solution was 10 times diluted, and 100 μL of the diluted solution was administered. Each peptide was intravenously administered via the femoral vein cannula, and the systolic blood pressure, diastolic blood pressure, and heart rate were then measured.
Various HC021 derivative peptides were synthesized in accordance with Example 1, and such peptide was then administered to each rat at a dose of 10 nmol/rat, 30 nmol/rat, or 100 mol/rat by the method described in Example 2. Thereafter, the hypotensive activity of each derivative peptide was measured. […] The strength of such activity was determined using a median of activity in repeated experiments. In addition, in order to make a comparison among the activities of various derivative peptides, the strength of hypotensive activity was defined as follows.
Strength of Hypotensive Activity
Extremely strong activity (+++): A decrease in systolic blood pressure is 30 mmHg or more, and the time required for recovery is 5 minutes or more.
Strong activity (++): A decrease in systolic blood pressure is 20 mmHg or more and less than 30 mmHg, or the time required for recovery is less than 5 minutes.
Activity observed (+): A decrease in systolic blood pressure is less than 20 mmHg.
Activity not observed (−)
Various HC021 peptide sequence-substituted products were synthesized in accordance with Example 1, and their hypotensive activity was then measured according to the method of Example 3.

[2] = tested on: blood pressure of awake Sprague-Dawley IGS male rats; test: Hypotensive activity on awake rats; type: in vivo, rat; set-up: key to Hypotensive activity (dose/rat) 10 nmol / Hypotensive activity (dose/rat) 30 nmol: Extremely strong activity (+++): A decrease in systolic blood pressure is 30 mmHg or more, and the time required for recovery is 5 minutes or more.; Strong activity (++): A decrease in systolic blood pressure is 20 mmHg or more and less than 30 mmHg, or the time required for recovery is less than 5 minutes.; Activity observed (+): A decrease in systolic blood pressure is less than 20 mmHg.; Activity not observed (−); conditions: for Hypotensive activity (dose/rat) 10 nmol / Hypotensive activity (dose/rat) 30 nmol / Hypotensive activity (dose/rat) 100 nmol: Table 4, intravenous; for Hypotensive activity (dose/rat) 10 nmol: 10 nmol/rat; for Hypotensive activity (dose/rat) 30 nmol: 30 nmol/rat; for Hypotensive activity (dose/rat) 100 nmol: 100 nmol/rat
Procedure: 50 mg/kg pentobarbital sodium was intraperitoneally administered to 8- to 10-week-old Sprague-Dawley IGS male rats (Charles River Laboratories Japan, Inc.) for anesthesia. Thereafter, a jugular vein cannula (Silascon 0.5-1.0) was inserted into each rat for use in peptide administration, and a carotid artery cannula (PE50) was inserted into each rat for use in the measurement of blood pressure. At least 3 hours after the surgery, it was confirmed that the rats were awoken from the anesthesia based on general conditions such as the posture, respiration, and the like of the rats. Thereafter, the rats were subjected to the experiment.
The carotid artery cannula was connected with a pressure transducer (PE23XL; manufactured by Nihon Kohden Corporation), and an apparatus formed by incorporating a blood pressure measurement unit (AP-641G; manufactured by Nihon Kohden Corporation) and an instantaneous heart rate measurement unit (AT-601G; manufactured by Nihon Kohden Corporation) into a multi-purpose preamplifier (RP-6004; manufactured by Nihon Kohden Corporation) was used to record the blood pressure and heart rate of each rat. The blood pressure was calibrated using a mercury manometer included in a stand-type electromanometer (MP-25S; manufactured by Nihon Kohden Corporation). The recording paper was adjusted, such that 20 mm or 40 mm on the recording paper corresponded to 100 mmHg. A solvent in which each peptide had been dissolved was used as a negative control in blood pressure fluctuation.
Each peptide was dissolved in a concentration of 1 mM in a 5% mannitol solution to prepare a peptide solution. Thereafter, depending on dose, it was diluted with a 5% mannitol solution. In the case of the dose of 10 nmol/rat, a 1 mM peptide solution was 30 times diluted, and 300 μL of the diluted solution was administered. In the case of the dose of 30 nmol/rat, a 1 mM peptide solution was 10 times diluted, and 300 μl of the diluted solution was administered. In the case of the dose of 100 nmol/rat, a 1 mM peptide solution was 3 times diluted, and 300 μL of the diluted solution was administered. Each peptide was intravenously administered via the jugular vein cannula, and the systolic blood pressure, diastolic blood pressure, and heart rate were then measured.
The definition of the strength of hypotensive activity was the same as that of Example 3.

[3] = tested on: anti-[N-Cys]-HC021-004 serum; test: ELISA binding of anti-[N-Cys]-HC021-004 serum to coated peptides; set-up: species or system rabbit; conditions: absorbance at 405 nm, FIG. 3
Text: Using [N-Cys]-HC021-004 (a peptide prepared by binding cysteine to the amino terminus of HC021-004) as an antigen, a rabbit was immunized with the antigen to produce antiserum (anti-[N-Cys]-HC021-004 serum).
The ability of this antiserum to bind to peptides having various types of sequences was examined using Protein Detector™ ELISA kit (AP; BluePhos System; manufactured by KPL). Reactions were all carried out at a room temperature. A 96-well immunoplate (maxi-coated; manufactured by Nunc) was coated (amount: 100 uL/well) with each peptide having a different type of sequence (concentration: 1 ng/100 uL) for 1 hour. Then, it was blocked with a 300 uL/well blocking solution for 1 hour. Thereafter, the serially diluted antiserum was added in an amount of 100 uL/well to the immunoplate, followed by reaction for 1 hour. After completion of washing, 500-times diluted Anti-rabbit IgG HRP Ab (manufactured by KPL) was added thereto in an amount of 100 uL/well, followed by reaction for 1 hour. After completion of washing, ABTS (manufactured by KPL) used as a substrate was added thereto in an amount of 100 uL/well. Thirty minutes later, the absorbance at 405 nm was measured.

| binding of anti-[N-Cys]-HC021-004 serum to the peptide [3] | Substance | Hypotensive activity (dose/rat) 10 nmol ([1]; Table 3, anesthetized rats) | Hypotensive activity (dose/rat) 30 nmol ([1]; Table 3, anesthetized rats) | Hypotensive activity (dose/rat) 100 nmol ([1]; Table 3, anesthetized rats) | hypotensive activity (in words) [2] | Hypotensive activity (dose/rat) 10 nmol [2] | Hypotensive activity (dose/rat) 30 nmol [2] | Hypotensive activity (dose/rat) 100 nmol [2] | Hypotensive activity (dose/rat) 30 nmol ([1]; Table 1, anesthetized rats) | Hypotensive activity (dose/rat) 100 nmol ([1]; Table 1, anesthetized rats) | Hypotensive activity (dose/rat) 30 nmol ([1]; Table 2, anesthetized rats) | Hypotensive activity (dose/rat) 100 nmol ([1]; Table 2, anesthetized rats) | Hypotensive activity (dose/rat) 10 nmol ([1]; Table 1, anesthetized rats) | Hypotensive activity (dose/rat) 10 nmol ([1]; Table 2, anesthetized rats) | dose dependence of hypotensive activity ([1]; anesthetized rats, 10, 30, 100 nmol/rat) | hypotensive activity (in words) ([1]; anesthetized rats, Table 1 and FIG. 1, 10 or 30 nmol/rat, listed as HC021-004) |
| --- | --- | --- | --- | --- | --- | --- | --- | --- | --- | --- | --- | --- | --- | --- | --- | --- |
|  | ATLRNEDTWKPLSNPRNRELFFRSLQAYFK-amide [Compound 36] | − | − | +++ (Extremely strong activity (+++): A decrease in systolic blood pressure is 30 mmHg or more, and the time required for recovery is 5 minutes or more.) | observed to have a hypotensive activity even on the awake rats | − | − | ++ (Strong activity (++): A decrease in systolic blood pressure is 20 mmHg or more and less than 30 mmHg, or the time required for recovery is less than 5 minutes.) |  |  |  |  |  |  |  |  |
| bound | LQAYFK-amide (LQAYFK-NH2) [Compound 4] |  |  |  |  |  |  |  | − | − | − | − |  |  |  |  |
| did not bind | LQAYFKGRGLDLGTFPNPFPTNENP [Compound 2] |  |  |  |  |  |  |  | − | − |  |  | − |  |  |  |
| bound | NRDLFFRRLQAYFK-amide (NRDLFFRRLQAYFK-NH2) [Compound 3] | + (Activity observed (+): A decrease in systolic blood pressure is less than 20 mmHg.) | ++ (Strong activity (++): A decrease in systolic blood pressure is 20 mmHg or more and less than 30 mmHg, or the time required for recovery is less than 5 minutes.) | +++ (Extremely strong activity (+++): A decrease in systolic blood pressure is 30 mmHg or more, and the time required for recovery is 5 minutes or more.) | observed to have a hypotensive activity even on the awake rats | − | − | ++ (Strong activity (++): A decrease in systolic blood pressure is 20 mmHg or more and less than 30 mmHg, or the time required for recovery is less than 5 minutes.) | ++ (Strong activity (++): A decrease in systolic blood pressure is 20 mmHg or more and less than 30 mmHg, or the time required for recovery is less than 5 minutes.) | +++ (Extremely strong activity (+++): A decrease in systolic blood pressure is 30 mmHg or more, and the time required for recovery is 5 minutes or more.) | ++ (Strong activity (++): A decrease in systolic blood pressure is 20 mmHg or more and less than 30 mmHg, or the time required for recovery is less than 5 minutes.) | +++ (Extremely strong activity (+++): A decrease in systolic blood pressure is 30 mmHg or more, and the time required for recovery is 5 minutes or more.) | + (Activity observed (+): A decrease in systolic blood pressure is less than 20 mmHg.) | + (Activity observed (+): A decrease in systolic blood pressure is less than 20 mmHg.) | enhanced their hypotensive activity in a dose-dependent manner | observed to have a hypotensive activity; also recorded: act to lower the blood pressure of rats |
